Experiments:
[1] = Inhibition of protein phosphatase (PP2A) at 100 uM
[2] = species on record: Homo sapiens; test: Inhibition of protein phosphatase (PP2A) at 10 uM using fluorescein diphosphate
[3] = Inhibitory activity against protein phosphatase (PP2A) at 1 uM using fluorescein diphosphate
[4] = Inhibition of protein phosphatase (PP2A) at 250 uM
[5] = molecular target: T1, Serine/threonine-protein phosphatase 2A activator (Homo sapiens) (UniProt Q15257); test: Inhibitory activity against protein phosphatase (PP2A) at concentration of 250 uM using fluorescein diphosphate as substrate
T1 sequence (whole entry): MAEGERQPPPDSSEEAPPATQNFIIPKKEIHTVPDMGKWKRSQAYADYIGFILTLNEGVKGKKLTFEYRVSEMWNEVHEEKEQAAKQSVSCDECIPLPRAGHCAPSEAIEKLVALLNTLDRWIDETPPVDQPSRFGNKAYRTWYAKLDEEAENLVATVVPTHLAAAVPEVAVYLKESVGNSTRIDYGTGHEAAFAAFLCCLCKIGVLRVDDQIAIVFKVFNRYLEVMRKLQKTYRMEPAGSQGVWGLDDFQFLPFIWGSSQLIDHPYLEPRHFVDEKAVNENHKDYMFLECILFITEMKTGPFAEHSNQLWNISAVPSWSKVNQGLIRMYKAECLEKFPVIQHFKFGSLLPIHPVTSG

[6] = system: Serine/threonine-protein phosphatase 2A catalytic subunit alpha; test: Inhibitory activity against protein phosphatase (PP2A) at concentration of 1 uM using fluorescein diphosphate as substrate
[7] = system: Serine/threonine-protein phosphatase 2A catalytic subunit alpha; test: Inhibitory activity against protein phosphatase (PP2A) at concentration of 10 uM using fluorescein diphosphate as substrate
[8] = system: Serine/threonine-protein phosphatase 2A catalytic subunit alpha; test: Inhibitory activity against protein phosphatase (PP2A) at concentration of 100 uM using fluorescein diphosphate as substrate
[9] = system: Serine/threonine-protein phosphatase 2A catalytic subunit alpha; test: Inhibitory activity against protein phosphatase (PP2A) at a concentration of 125 uM using fluorescein diphosphate as substrate
[10] = system: Serine/threonine-protein phosphatase 2A catalytic subunit alpha; test: Inhibitory activity against protein phosphatase (PP2A) at a concentration of 150 uM using fluorescein diphosphate as substrate
[11] = system: Serine/threonine-protein phosphatase 2A catalytic subunit alpha; test: Inhibitory activity against protein phosphatase (PP2A) at a concentration of 200 uM using fluorescein diphosphate as substrate
[12] = molecular target: T1, Serine/threonine-protein phosphatase 2A activator (Homo sapiens); test: Inhibitory activity against protein phosphatase (PP2A) at a concentration of 100 uM using fluorescein diphosphate as substrate
[13] = molecular target: T1, Serine/threonine-protein phosphatase 2A activator (Homo sapiens); test: (§1) Inhibitory activity against protein phosphatase (PP2A) at a concentration of 250 uM using fluorescein diphosphate as substrate
[14] = molecular target: T1, Serine/threonine-protein phosphatase 2A activator (Homo sapiens); test: Inhibitory activity against protein phosphatase (PP2A) at a concentration of 150 uM using fluorescein diphosphate as substrate
[15] = molecular target: T2, Serine/threonine-protein phosphatase 2A 55 kDa regulatory subunit B alpha isoform (Homo sapiens) (UniProt P63151); test: as §1
T2 sequence (whole entry): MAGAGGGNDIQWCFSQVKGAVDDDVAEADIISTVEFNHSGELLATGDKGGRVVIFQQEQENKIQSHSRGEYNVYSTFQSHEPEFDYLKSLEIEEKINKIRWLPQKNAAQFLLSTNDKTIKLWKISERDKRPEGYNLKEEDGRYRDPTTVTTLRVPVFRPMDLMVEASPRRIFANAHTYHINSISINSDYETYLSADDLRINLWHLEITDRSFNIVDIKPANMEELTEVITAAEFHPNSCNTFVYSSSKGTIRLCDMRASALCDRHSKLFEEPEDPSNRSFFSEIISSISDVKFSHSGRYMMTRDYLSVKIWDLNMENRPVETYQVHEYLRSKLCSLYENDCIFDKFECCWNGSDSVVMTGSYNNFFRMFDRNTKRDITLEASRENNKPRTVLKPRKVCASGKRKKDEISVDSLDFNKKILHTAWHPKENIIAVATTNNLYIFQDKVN

Compound	inhibition [1]	inhibition [2]	inhibition [3]	inhibition [4]	further results
CC(C)(O)[C@H]1CC[C@](C)([C@@H](O)CC[C@](O)(CO)C2=CC[C@H]3O[C@@H]([C@]4(C)CC[C@@H](Br)C(C)(C)O4)CC[C@]3(C)O2)O1	99.1%	93.2%	52.8%	100%	–
C=C(CC[C@@H](O)[C@]1(C)CC[C@H](C(C)(C)O)O1)[C@H]1CC[C@H]2O[C@@H]([C@]3(C)CC[C@@H](Br)C(C)(C)O3)CC[C@]2(C)O1	–	–	–	–	inhibition [5]: 95.3%; inhibition [6]: 7.5%; inhibition [7]: 23.7%; inhibition [8]: 66.8%
C=C(CC[C@H](O)[C@@]1(C)CC[C@H](C(C)(C)O)O1)[C@H]1CC[C@H]2O[C@@H]([C@]3(C)CCC(=O)O3)CC[C@]2(C)O1	49.4%	40.1%	33.7%	63.2%	–
CC(CCC[C@H]1O[C@@H]([C@]2(C)CC[C@@H](Br)C(C)(C)O2)CC[C@]1(C)O)CC[C@H](O)[C@@]1(C)CC[C@H](C(C)(C)O)O1 (stereo partly specified)	57.8%	45.9%	–	74.5%	inhibition [6]: 43.6%
C=C(CC[C@H](O)[C@@]1(C)CC[C@H](C(C)(C)O)O1)[C@H]1CC[C@H]2O[C@@H]([C@]3(C)CC[C@@H](C(C)(C)OC)O3)CC[C@]2(C)O1	65.1%	4.7%	0%	57.2%	–
C=C(CC[C@H](O)[C@@]1(C)CC[C@H](C(C)(C)O)O1)[C@H]1CC[C@H]2O[C@@H]([C@]3(C)CC[C@@H](C(C)(C)O)O3)CC[C@]2(C)O1	40.4%	0%	0%	55.4%	–
C=C(CC[C@H](O)[C@@]1(C)CC[C@H](C(C)(C)O)O1)[C@H]1CC[C@H]2O[C@@H]([C@]3(C)CC[C@](OC)(C(C)C)O3)CC[C@]2(C)O1	43.1%	2.7%	0%	55.4%	–
C/C(=C/C[C@@H](O)[C@]1(C)CC[C@H](C(C)(C)O)O1)[C@H]1CC[C@H]2O[C@@H]([C@]3(C)CC[C@@H](Br)C(C)(C)O3)CC[C@]2(C)O1	6.5%	–	–	59.8%	inhibition [9]: 18.8%; inhibition [10]: 32.7%; inhibition [11]: 35.8%
C=C([C@@H](O)C[C@H](O)[C@@]1(C)CC[C@H](C(C)(C)O)O1)[C@H]1CC[C@H]2O[C@@H]([C@]3(C)CC[C@@H](Br)C(C)(C)O3)CC[C@]2(C)O1	100%	93.4%	41.1%	100%	–
C=C(CC[C@H](O)[C@@]1(C)CC[C@H](C(C)(C)O)O1)[C@H]1CC[C@H]2O[C@@H]([C@]3(C)CC[C@@H](Br)C(C)(C)O3)CC[C@]2(C)O1	–	12.2%	8.2%	–	inhibition [12]: 25.2%; inhibition [13]: 37.7%
C=C(CC[C@H](O)[C@@]1(C)CC[C@H](C(C)(C)O)O1)[C@H]1CC[C@H]2O[C@]3(C)CC[C@@H](Br)C(C)(C)O[C@H]3CC[C@]2(C)O1	–	–	–	66.5%	inhibition [6]: 18.9%; inhibition [7]: 20.4%; inhibition [8]: 59.7%
C=C([C@H](O)C[C@H](O)[C@@]1(C)CC[C@H](C(C)(C)O)O1)[C@H]1CC[C@H]2O[C@@H]([C@]3(C)CC[C@@H](Br)C(C)(C)O3)CC[C@]2(C)O1	65.1%	45.6%	42.2%	79.3%	–
CC(C)(O)[C@H]1CC[C@](C)([C@@H](O)CC[C@@](O)(CO)C2=CC[C@H]3O[C@@H]([C@]4(C)CC[C@@H](Br)C(C)(C)O4)CC[C@]3(C)O2)O1	89.6%	31.8%	15.2%	97.8%	–
C=C(CC[C@H](O)[C@@]1(C)CC[C@H](C(C)(C)O)O1)[C@H]1CC[C@H]2O[C@@H]([C@]3(C)CC[C@@H](Br)C(C)(C)O3)CC[C@@]2(C)O1	11.4%	–	–	66.4%	inhibition [14]: 26.1%; inhibition [9]: 24%; inhibition [11]: 47.8%
C=C(CC[C@H]1O[C@@H](C(C)(C)O)CC[C@]1(C)O)[C@H]1CC[C@H]2O[C@@H]([C@]3(C)CC[C@@H](Br)C(C)(C)O3)CC[C@]2(C)O1	74.7%	6.2%	0%	81.3%	–
C/C(=C\C[C@H](O)[C@@]1(C)CC[C@H](C(C)(C)O)O1)[C@H]1CC[C@H]2O[C@@H]([C@]3(C)CC[C@@H](Br)C(C)(C)O3)CC[C@@]2(C)O1	99.5%	41.9%	17.9%	–	inhibition [15]: 100%
